The results in this text go back to US7671079B2, “Sulfonyltetrahydro-3H-benzo(e)indole-8-amine compounds as 5-hydroxytryptamine-6 ligands” (Wyeth LLC, priority 2003, dated 2010).

For this experiment, the target named is T1, human cloned 5-HT6 receptors (Homo sapiens, UniProt P50406).
T1 construct: expressed in transfected cells; host or cells: Hela cells
T1 sequence (P50406 whole entry): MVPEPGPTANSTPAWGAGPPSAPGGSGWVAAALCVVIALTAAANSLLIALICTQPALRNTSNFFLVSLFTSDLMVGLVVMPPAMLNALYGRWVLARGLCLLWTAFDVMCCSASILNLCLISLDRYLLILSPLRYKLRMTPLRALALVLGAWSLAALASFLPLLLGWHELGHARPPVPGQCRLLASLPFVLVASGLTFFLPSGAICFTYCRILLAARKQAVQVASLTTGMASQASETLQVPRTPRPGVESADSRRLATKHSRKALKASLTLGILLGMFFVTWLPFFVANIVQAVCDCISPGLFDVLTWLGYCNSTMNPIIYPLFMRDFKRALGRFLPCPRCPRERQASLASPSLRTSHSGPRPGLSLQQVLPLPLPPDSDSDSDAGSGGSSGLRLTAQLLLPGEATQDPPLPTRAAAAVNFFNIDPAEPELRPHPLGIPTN
The experiment can be described thus: 5-HT6 binding affinity, [3H]-LSD displacement on membranes of Hela cells expressing human cloned 5-HT6 receptors. The note with it: [3H]-LSD 3.0 nM, Hela cell membranes, 120 min at room temperature. As to the method:
The affinity of test compounds for the serotonin 5-HT6 receptor is evaluated in the following manner. Cultured Hela cells expressing human cloned 5-HT6 receptors are harvested and centrifuged at low speed (1,000×g) for 10.0 min to remove the culture media. The harvested cells are suspended in half volume of fresh physiological phosphate buffered saline solution and recentrifuged at the same speed. This operation is repeated. The collected cells are then homogenized in ten volumes of 50 mM Tris.HCl (pH 7.4) and 0.5 mM EDTA. The homogenate is centrifuged at 40,000×g for 30.0 min and the precipitate is collected. The obtained pellet is resuspended in 10 volumes of Tris.HCl buffer and recentrifuged at the same speed. The final pellet is suspended in a small volume of Tris.HCl buffer and the tissue protein content is determined in aliquots of 10-25 μl volumes. Bovine Serum Albumin is used as the standard in the protein determination according to the method described in Lowry et al., J. Biol. Chem., 193:265 (1951). The volume of the suspended cell membranes is adjusted to give a tissue protein concentration of 1.0 mg/ml of suspension. The prepared membrane suspension (10 times concentrated) is aliquoted in 1.0 ml volumes and stored at −70° C. until used in subsequent binding experiments.
Binding experiments are performed in a 96 well microtiter plate format, in a total volume of 200 μl. […] The test compounds are added in 20.0 μl volume.
The reaction is allowed to proceed in the dark for 120 min at room temperature, at which time, the bound ligand-receptor complex is filtered off on a 96 well unifilter with a Packard Filtermate® 196 Harvester. The bound complex caught on the filter disk is allowed to air dry and the radioactivity is measured in a Packard TopCount® equipped with six photomultiplier detectors, after the addition of 40.0 μl Microscint®-20 scintillant to each shallow well. The unifilter plate is heat-sealed and counted in a PackardTopCount® with a tritium efficiency of 31.0%.
Binding in the presence of varying concentrations of test compound is expressed as a percentage of specific binding in the absence of test compound. The results are plotted as log % bound versus log concentration of test compound. […] A linear regression line of data points is plotted, from which the IC50 value is determined and the Ki value is determined based upon the following equation: Ki=IC50/(1+L/KD) where L is the concentration of the radioactive ligand used and KD is the dissociation constant of the ligand for the receptor, both expressed in nM.
By Ki is commonly meant a dissociation constant, usually derived from enzyme kinetics or from competition with a known ligand. Turning to “3-[(2,3-dichlorophenyl)sulfonyl]-N,N-dimethyl-6,7,8,9-tetrahydro-3H-benzo[e]indol-8-amine [Example 16]”, affinity was put at a Ki of 6 nM.
Next, “3-[(2,6-dichloroimidazo[2,1-b][1,3]thiazol-5-yl)sulfonyl]-N,N-dimethyl-6,7,8,9-tetrahydro-3H-benzo[e]indol-8-amine [Example 19]”: 5 nM; `CN(C)C1CCc2ccc3c(ccn3S(=O)(=O)c3ccccc3)c2C1` (stereo not shown) [Example 8, N,N-Dimethyl-3-(Phenylsulfonyl)-6,7,8,9-tetrahydro-3H-benzo[e]indol-8-amine]: 1 nM.
`CN(C)C1CCc2ccc3c(ccn3S(=O)(=O)c3ccc(OC(F)(F)F)cc3)c2C1` (stereo not shown) [Example 9] registered a Ki of 79 nM.
For `CN(C)C1CCc2ccc3c(ccn3S(=O)(=O)c3ccc(F)cc3)c2C1` (stereo not shown) [Example 11, 3-[(4-fluorophenyl)sulfonyl]-N,N-dimethyl-6,7,8,9-tetrahydro-3H-benzo[e]indol-8-amine] the value was 19 nM.
Next, `CN(C)C1CCc2ccc3c(ccn3S(=O)(=O)c3ccc(C(F)(F)F)cc3Cl)c2C1` (stereo not shown) [Example 12]: 55 nM.
Next, `CN(C)C1CCc2ccc3c(ccn3S(=O)(=O)c3ccc(F)c(F)c3)c2C1` (stereo not shown) [Example 13, 3-[(3,4-difluorophenyl)sulfonyl]-N,N-dimethyl-6,7,8,9-tetrahydro-3H-benzo[e]indol-8-amine]: 9 nM; `CN(C)C1CCc2ccc3c(ccn3S(=O)(=O)c3ccccc3Cl)c2C1` (stereo not shown) [Example 14, 3-[(2-chlorophenyl)sulfonyl]-N,N-dimethyl-6,7,8,9-tetrahydro-3H-benzo[e]indol-8-amine]: 2 nM; `CN(C)C1CCc2ccc3c(ccn3S(=O)(=O)c3cccc(Cl)c3)c2C1` (stereo not shown) [Example 15, 3-[(3-chlorophenyl)sulfonyl]-N,N-dimethyl-6,7,8,9-tetrahydro-3H-benzo[e]indol-8-amine]: 2 nM.
The molecule `CN(C)C1CCc2ccc3c(ccn3S(=O)(=O)c3ccc(F)cc3F)c2C1` (stereo not shown) [Example 17, 3-[(2,4-diflorophenyl)sulfonyl]-N,N-dimethyl-6,7,8,9-tetrahydro-3H-benzo[e]indol-8-amine] registered a Ki of 8 nM.
`CN(C)C1CCc2ccc3c(ccn3S(=O)(=O)c3c(Cl)nc4sccn34)c2C1` (stereo not shown) [Example 18, 3-[(6-chloroimidazo[2,1-b][1,3]thiazol-5-yl)sulfonyl]-N,N-dimethyl-6,7,8,9-tetrahydro-3H-benzo[e]indol-8-amine]: the Ki was 6 nM.
For `Cc1noc(C)c1S(=O)(=O)n1ccc2c3c(ccc21)CCC(N(C)C)C3` (stereo not shown) [Example 20] the value was 59 nM.
Next, `Cc1ccc(S(=O)(=O)n2ccc3c4c(ccc32)CCC(NC2CC2)C4)cc1` (stereo not shown) [Example 21]: 103 nM; `Cc1ccc(S(=O)(=O)n2ccc3c4c(ccc32)CCC(NC2CCC2)C4)cc1` (stereo not shown) [Example 24]: 36 nM.
For `CCCNC1CCc2ccc3c(ccn3S(=O)(=O)c3ccc(C)cc3)c2C1` (stereo not shown) [Example 25] the value was 12 nM; for “N,N-dimethyl-3-(2-naphthylsulfonyl)-6,7,8,9-tetrahydro-3H-benzo[e]indol-8-amine [Example 10]”, 13 nM.
